# In PMC12841663, “Antiprotozoal Potential of Cultivated Geranium macrorrhizum Against Giardia duodenalis, Trichomonas gallinae and Leishmania infantum” (International Journal of Molecular Sciences, 2026):
# Entries after “also recorded” stand apart in the source; their conditions may differ.
# How the values were obtained:
# [1] = test system: T. gallinae trophozoites; assay: Anti-Trichomonas activity assay (MTT viability); format: cell-based; settings: pure compounds
# Method: The anti-Trichomonas (AT) activity assay utilized T. gallinae trophozoites from an isolate obtained from a wood pigeon by Dr. […] EOs and pure compounds were solved in DMSO (Sigma, Madrid, Spain) (<1% final concentration). […] Trophozoites/promastigotes viability was assessed using the modified MTT colorimetric assay, as described previously in the literature, with results further validated by microscopic examination. The plate was analyzed in a spectrophotometer at a wavelength of 570 nm. The percentage of antiparasitic activity was calculated as growth inhibition, using the following formula: % AT = 100 - [(Ap - Ab) ÷ (Ac - Ab)] × 100, where Ap is the absorbance of the tested product, Ab the absorbance of the blank and Ac the absorbance of the control wells (culture without treatment). […] Metronidazole (Acros Organics, Madrid, Spain) served as a reference compound for anti-Giardia activity and Anti-Trichomonas activity and amphotericin B for anti-Leishmania activity. Data was analyzed using STATGRAPHICS Centurion XIX ([…].com) (Statgraphics Technologies, Inc., The Plains, VA, USA). The mammalian cells and trophozoites viability were tested with each compound in a dose-response experiment to calculate their relative potency (CC50 or IC50 value, respectively).
# [2] = test system: G. duodenalis trophozoites; assay: Morphological evaluation by light microscopy (Diff-Quik), G. duodenalis; format: cell-based, Giardia duodenalis; settings: germacrone 100 µg/mL
# Method: Each well contained 435 μL of culture medium and 15 μL of the test or control compounds at the above-mentioned concentrations. The chamber included: two wells for growth control (0.5 h, 48 h), two for germacrone (0.5 h, 48 h), and two for metronidazole (0.5 h, 48 h). Incubation was performed at 37 °C. At each time point, the medium was removed, wells were dried, fixed, and stained with Diff-Quik. Morphological changes were analyzed using light microscopy. Experiments were performed as independent biological replicates on different plates, and one Diff-Quik stained smear was obtained per condition and time point per biological replicate. For morphometric analysis, a total of 30 trophozoites per condition and time point were measured across the independent biological replicates and were selected by consecutive sampling during a predefined serpentine (zig-zag) scan across the preparation. Up to two eligible trophozoites per field (intact, well-focused and non-overlapping) were measured in sequential fields until n = 30 was reached, avoiding subjective selection of “representative” cells. Overlapping, partially visible, out-of-focus, edge-of-field, or debris-obscured trophozoites were excluded a priori. Trophozoites were photographed using a researcher's mobile phone mounted to the microscope ocular. Calibration was performed at the same magnification using a stage micrometre and applied in ImageJ v. 1.54d. One Diff-Quik stained smear was obtained per condition/time point per biological replicate Cell length, cell width, cell surface, nuclear length, nuclear width, axoneme (only Giardia), and length of axostyle (only T. gallinae) were measured with ImageJ software, and the data were recorded in an Excel database for statistical analysis. The Shapiro-Wilk test was used to assess the normality of the morphological variables. When data followed a normal distribution, Student's t-test was applied; otherwise, non-parametric tests, such as the Mann-Whitney U test, was used. Values of p < 0.05 were considered significant. For the morphological analysis, the mean, standard deviation, median, and interquartile range were calculated using SPSS version 20 (IBM Corp., Armonk, NY, USA).
# [3] = test system: G. duodenalis trophozoites; assay: Anti-Giardia activity assay (MTT viability); format: cell-based; settings: pure compounds
# Method: Anti-Giardia (AG) activity assays were conducted on G. duodenalis trophozoites from the ATCC® 30957 strain (assemblage A), using flat-bottom microwell plates in quadruplicate. […] Incubation was carried out for 24 h at 37 °C. EOs and pure compounds were solved in DMSO (Sigma, Madrid, Spain) (<1% final concentration). […] Trophozoites/promastigotes viability was assessed using the modified MTT colorimetric assay, as described previously in the literature, with results further validated by microscopic examination. The plate was analyzed in a spectrophotometer at a wavelength of 570 nm. The percentage of antiparasitic activity was calculated as growth inhibition, using the following formula: % AT = 100 - [(Ap - Ab) ÷ (Ac - Ab)] × 100, where Ap is the absorbance of the tested product, Ab the absorbance of the blank and Ac the absorbance of the control wells (culture without treatment). […] Metronidazole (Acros Organics, Madrid, Spain) served as a reference compound for anti-Giardia activity and Anti-Trichomonas activity and amphotericin B for anti-Leishmania activity. Data was analyzed using STATGRAPHICS Centurion XIX ([…].com) (Statgraphics Technologies, Inc., The Plains, VA, USA). The mammalian cells and trophozoites viability were tested with each compound in a dose-response experiment to calculate their relative potency (CC50 or IC50 value, respectively).
# [4] = metronidazole 100 µg/mL, 0.5 and 48 h, control DMSO 1%
compound,measurement,setting,value
"CC(C)=C1C/C=C(\C)CC/C=C(\C)CC1=O [Compound 2, germacrone]",IC50,[1],45.8 µg/mL
same,axoneme length vs control,[2]; [4],"decreased at 0.5 h; also recorded: at 48 h, germacrone caused an increase"
same,cell length vs control,[2]; [4],significant reductions at 30 min
same,cell width vs control,[2]; [4],"no differences were observed at 0.5 h with germacrone, but after 48 h, a significant increase"
same,nuclear length (left and right) vs control,[2]; [4],decreased significantly with germacrone at 0.5 h and later increased after 48 h
same,nuclear width vs control,[2]; [4],"reduction at 0.5 h, followed by an increase at 48 h"
same,morphological changes (light microscopy),"[2]; 48 h of exposure, Diff-Quik",less defined cytoplasm and nucleus of the cells
same,IC50,[3],55.2 µg/mL
